Reference: patent publication US4148786A, “Analgesic polypeptide” (American Home Products Corporation, priority 1978, dated 1979)
Values joined by “and” are separate entries in the source; they are usually repeats but may differ in a detail not shown here. Identical values can stand only once. Like-named read-outs stand apart in the source and are kept apart here. Where a SMILES comes first, the peptide text is derived from it. Bridges are numbered along the chain shown (N, C = ends). [ ]: non-standard residue; d: D form.

Columns and labels:
male rats [1] = assay: rat-tail flick test of D'Amour and Smith; type: in vivo
opiate receptor = opiate receptor binding affinity (method of Chang et al.); conditions: two assays
Protocol: The opiate receptor binding affinity of the compound of Example 2 was determined following the method of Chang et al., Life Sciences, 18, 1473-82(1976).

male rats [2] = assay: rat-tail flick test of D'Amour and Smith; type: in vivo; conditions: for Positive Responses / Total Possible Responses: all time periods
Protocol: The holders were situated so that a high intensity light beam would shine on the tip of the rats tail. The light beam intensity was adjusted so that normal rats respond by removing their tails from the light stimulus within from 3 to 8 seconds. The average of three time readings for removal of a rats tail from the light beam, taken 20 minutes apart serves as a pre-drug control. The rats were selected for use based upon control readings that agreed within one second. The compounds of this invention were then administered intravenously and the test performed at 15, 30 and 60 minutes to determine the animals reaction time which was compared with the control average and tested for significance. The number of rats showing analgesia at each time period out of the total group for each dose administered is noted as a ratio and the number of positive responses observed is relative to the total number of challenges for each group of rats.

mice = conditions: central administration; cited from earlier work
[3] = administered peripherally; cited from earlier work
rats [4] = conditions: cited from earlier work; for analgesia: injection in the brain ventricle in rats
[5] = central administration; cited from earlier work
rats [6] = conditions: peripheral (i.v.); cited from earlier work

Compound	Positive Responses / Total Possible Responses (male rats [1]; 1 mg/kg iv, all time periods)	No. Analgesic / Total No. Tested (male rats [1]; 5 mg/kg iv, 30 minutes)	No. Analgesic / Total No. Tested (male rats [2]; 1 mg/kg iv, 15 minutes)	No. Analgesic / Total No. Tested (male rats [2]; 1 mg/kg iv, 30 minutes)	No. Analgesic / Total No. Tested (male rats [2]; 1 mg/kg iv, 60 minutes)	Comments: respiratory depression (male rats [2]; 5 mg/kg iv)	No. Analgesic / Total No. Tested (male rats [2]; 5 mg/kg iv, 15 minutes)	No. Analgesic / Total No. Tested (male rats [2]; 5 mg/kg iv, 60 minutes)	Positive Responses / Total Possible Responses (male rats [2]; 5 mg/kg iv)	also measured
NC(=O)[C@H]1CSSC[C@@H](NC(=O)[C@@H](N)Cc2ccc(O)cc2)C(=O)NCC(=O)N[C@@H](Cc2ccccc2)C(=O)N1 [Example 2, L-Tyrosyl-D-cysteinyl-glycyl-L-phenylalanyl-D-cysteinyl amide cyclic (2-5) disulfide]	10/12 and 12/18	5/5	4/5 and 4/6	4/4 and 5/6	2/3 and 3/6	4/4 Respiration very depressed	5/5	4/4	14/14	No. Analgesic / Total No. Tested (male rats [1]; 0.1 mg/kg iv, 15 minutes): 2/6; No. Analgesic / Total No. Tested (male rats [1]; 0.1 mg/kg iv, 30 minutes): 0/6; No. Analgesic / Total No. Tested (male rats [1]; 0.1 mg/kg iv, 60 minutes): 0/6; Positive Responses / Total Possible Responses (male rats [1]; 0.1 mg/kg iv, all time periods): 2/18; Comments: respiratory depression (male rats [1]; 0.5 mg/kg iv): 1/6 slight respiratory depression; No. Analgesic / Total No. Tested (male rats [1]; 0.5 mg/kg iv, 15 minutes): 3/6 and 4/6; No. Analgesic / Total No. Tested (male rats [1]; 0.5 mg/kg iv, 30 minutes): 2/6 and 3/6; Positive Responses / Total Possible Responses (male rats [1]; 0.5 mg/kg iv, all time periods): 6/10 and 9/18; Comments: dead (male rats [1]; 1 mg/kg iv): 3/6; Comments: respiratory depression (male rats [1]; 1 mg/kg iv): 2/3 severe respiratory depression and Slight depression; Comments: dead (male rats [1]; 5 mg/kg iv): 2/6; Positive Responses / Total Possible Responses (male rats [1]; 5 mg/kg s.c.): 7/24; No. Analgesic / Total No. Tested (male rats [1]; 5 mg/kg s.c., 15 minutes): 4/6; displacement potency relative to morphine (opiate receptor): 100 times that of morphine and 109 times that of morphine; No. Analgesic / Total No. Tested (male rats [2]; 0.5 mg/kg iv, 60 minutes): 1/6 and 2/6
NC(=O)[C@@H]1CSSC[C@@H](NC(=O)[C@@H](N)Cc2ccc(O)cc2)C(=O)NCC(=O)N[C@@H](Cc2ccccc2)C(=O)N1 [Example 3, L-Tyrosyl-D-Cysteinyl-glycyl-L-phenylalanyl-L-cysteinyl amide cyclic (2-5) disulfide]	7/18	5/6	4/6	2/6	1/6	3/6 moderate to severe respiratory	6/6	4/6	15/18	
CN1C(=O)CNC(=O)[C@H](NC(=O)[C@@H](N)Cc2ccc(O)cc2)CSSC[C@H](C(N)=O)NC(=O)[C@@H]1Cc1ccccc1 [Example 4, L-Tyrosyl-D-cysteinyl-glycyl-N-methyl-L-phenylalanyl-D-cysteinylamide cyclic (2-5) disulfide]		4/6				3/6 respiratory depression	5/6	3/6	12/18	
N=C(N)NCCC[C@H](N)C(=O)N[C@@H](Cc1ccc(O)cc1)C(=O)N[C@@H]1CSSC[C@H](C(N)=O)NC(=O)[C@H](Cc2ccccc2)NC(=O)CNC1=O [Example 5, L-Arginyl-L-tyrosyl-D-cysteinyl-glycyl-L-phenylalanyl-D-cysteinylamide cyclic (3-6) disulfide] (H-RY[dC]GF[dC]-NH2; disulfide 3-6)	9/18	5/5	4/6	3/6	2/6	3/5 respiratory depression	6/6	5/5	16/16	No. Analgesic / Total No. Tested (male rats [1]; 0.5 mg/kg iv, 15 minutes): 2/6; No. Analgesic / Total No. Tested (male rats [1]; 0.5 mg/kg iv, 30 minutes): 2/6; Positive Responses / Total Possible Responses (male rats [1]; 0.5 mg/kg iv, all time periods): 4/18; Comments: dead (male rats [1]; 5 mg/kg iv): 1; No. Analgesic / Total No. Tested (male rats [2]; 0.5 mg/kg iv, 60 minutes): 0/6
CN[C@@H](Cc1ccc(O)cc1)C(=O)N[C@@H]1CSSC[C@H](C(N)=O)NC(=O)[C@H](Cc2ccccc2)NC(=O)CNC1=O [Example 6, N-Methyl-L-tyrosyl-D-cysteinyl-glycyl-L-phenylalanyl-D-cysteinylamide cyclic (2-5) disulfide]	14/18	4/4	6/6	5/6	3/6	3/3 respiratory depression	6/6	3/3	13/13	Comments: dead (male rats [1]; 5 mg/kg iv): 3
H-Tyr-D-Ala-Gly-Phe-D-Leu-OH										antinociceptive and behavioral effects (mice): exhibit antinociceptive and behavioral effects; analgesic activity on peripheral administration [3]: exhibit peripheral analgesic activity; antinociceptive and behavioral effects (rats [4]; central administration, rats): exhibit antinociceptive and behavioral effects
H-Tyr-D-Ala-Gly-Phe-D-Met-NH2										analgesic activity (rats [4]; centrally administered, rats): produced analgesic activity
H-Tyr-D-Ala-Gly-Phe-Met-NH2										analgesia [5]: long lasting analgesic
H-Tyr-Gly-Gly-Phe-Leu-OH [leucine-enkephalin]										analgesia (rats [4]): induce a profound analgesia
H-Tyr-Gly-Gly-Phe-Met-OH [methionine-enkephalin]										analgesia (rats [4]): induce a profound analgesia
H-Y[dM]GFP-NH2										analgesic activity (rats [6]): peripheral (i.v.) analgesic activity
